Laboratory results as given in PubChem BioAssay (NCI).
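Each compound was tested at five concentrations against cells in 96-well plates for 48 hours. Here, GI50 denotes the concentration required for 50% inhibition of growth. TGI: total growth inhibition.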

Legend:
Experiment in all cases: NCI tumour cell line growth inhibition, 48 h
[1] = system: CAKI-1 renal
[2] = system: HS 578T breast
[3] = system: HCT-15 colon
[4] = system: U251 CNS
[5] = system: NCI-H23 lung
[6] = system: HOP-62 NSCLC
[7] = system: DU-145 prostate
[8] = system: SNB-75 CNS
[9] = system: MDA-MB-435
[10] = system: COLO 205 colon
[11] = system: BT-549 breast
[12] = system: SK-MEL-28 melanoma
[13] = system: IGROV1 ovarian
[14] = system: NCI-H226 lung
[15] = system: PC-3 prostate
[16] = system: LOX IMVI melanoma
[17] = system: UACC-257 melanoma
[18] = system: RXF 393 renal
[19] = system: MDA-MB-468 breast
[20] = system: K-562 leukemia
[21] = system: HL-60(TB) leukemia
[22] = system: OVCAR-5 ovarian
[23] = system: KM12 colon
[24] = system: OVCAR-4 ovarian
[25] = system: 786-0 renal
[26] = system: SW-620 colon
[27] = system: HCT-116 colon
[28] = system: OVCAR-8 ovarian
[29] = system: ACHN renal
[30] = system: NCI-H460 lung
[31] = system: UO-31 renal
[32] = system: EKVX NSCLC
[33] = system: SF-268 CNS
[34] = system: MOLT-4 leukemia
[35] = system: CCRF-CEM leukemia
[36] = system: M14 melanoma
[37] = system: SK-MEL-5 melanoma
[38] = system: TK-10 renal
[39] = system: MDA-MB-231 breast
[40] = system: A549 NSCLC
[41] = system: SNB-19 CNS
[42] = system: HCC-2998 colon
[43] = system: RPMI-8226 leukemia
[44] = system: A498 renal
[45] = system: HOP-92 NSCLC
[46] = system: SN12C renal
[47] = system: MCF7 breast
[48] = system: SF-539 CNS
[49] = system: SF-295 CNS
[50] = system: T-47D breast
[51] = system: OVCAR-3 ovarian
[52] = system: NCI-H522 lung
[53] = system: SK-OV-3 ovarian
[54] = system: HT29 colon
[55] = system: SR leukemia
[56] = system: UACC-62 melanoma
[57] = system: MALME-3M melanoma

## CCC(C)(C)c1ccc(OCCCCCCN2CCN(c3ccncc3)CC2)cc1
[1]
  GI50: 4.97 µM
  TGI: 18.6 µM
[2]
  GI50: 7.73 µM
  TGI: 26.9 µM
[3]
  GI50: 1.75 µM
  TGI: 3.88 µM
[4]
  GI50: 3.06 µM
  TGI: 11.8 µM
[5]
  GI50: 3.65 µM
  TGI: 14 µM
[6]
  GI50: 6.77 µM
  TGI: 23.8 µM
[7]
  GI50: 5.27 µM
  TGI: 17.6 µM
[8]
  GI50: 8.03 µM
  TGI: 22.4 µM
[9]
  GI50: 2.5 µM
  TGI: 8.34 µM
[10]
  GI50: 1.66 µM
  TGI: 3.33 µM
[11]
  GI50: 3.07 µM
  TGI: 12.2 µM
[12]
  GI50: 3.71 µM
  TGI: 13.3 µM
[13]
  GI50: 10.8 µM
  TGI: 24.4 µM
[14]
  GI50: 10.6 µM
  TGI: 23.7 µM
[15]
  GI50: 3.63 µM
  TGI: 16.2 µM
[16]
  GI50: 1.81 µM
  TGI: 3.4 µM
[17]
  GI50: 10.7 µM
  TGI: 23.8 µM
[18]
  GI50: 1.89 µM
  TGI: 8.42 µM
[19]
  GI50: 1.76 µM
  TGI: 3.65 µM
[20]
  GI50: 1.52 µM
  TGI: 6.8 µM
[21]
  GI50: 1.68 µM
  TGI: 4.06 µM
[22]
  GI50: 13.4 µM
  TGI: 26.2 µM
[23]
  GI50: 4.17 µM
  TGI: 15.9 µM
[24]
  GI50: 6.33 µM
  TGI: 21 µM
[25]
  GI50: 1.67 µM
  TGI: 3.15 µM
[26]
  GI50: 1.66 µM
  TGI: 3.69 µM
[27]
  GI50: 1.6 µM
  TGI: 3.85 µM
[28]
  GI50: 10.2 µM
  TGI: 30.1 µM
[29]
  GI50: 6.33 µM
  TGI: 19.5 µM
[30]
  GI50: 2.08 µM
  TGI: 4.77 µM
[31]
  GI50: 10 µM
  TGI: 22.1 µM
[32]
  GI50: 4.14 µM
  TGI: 16.5 µM
[33]
  GI50: 11.8 µM
  TGI: 27.9 µM
[34]
  GI50: 3.14 µM
  TGI: 10.1 µM
[35]
  GI50: 2.02 µM
  TGI: 10.3 µM
[36]
  GI50: 1.58 µM
  TGI: 3.39 µM
[37]
  GI50: 1.79 µM
  TGI: 3.58 µM
[38]
  GI50: 14.6 µM
  TGI: 28.7 µM
[39]
  GI50: 3.16 µM
  TGI: 12.2 µM
[40]
  GI50: 10.6 µM
  TGI: 26.6 µM
[41]
  GI50: 8.19 µM
  TGI: 22.2 µM
[42]
  GI50: 1.87 µM
  TGI: 3.5 µM
[43]
  GI50: 2.06 µM
  TGI: 4.98 µM
[44]
  GI50: 17.9 µM
  TGI: 34.6 µM
[45]
  GI50: 2.17 µM
  TGI: 15.4 µM
[46]
  GI50: 10.2 µM
  TGI: 22.4 µM
[47]
  GI50: 1.73 µM
  TGI: 3.95 µM
[48]
  GI50: 1.84 µM
  TGI: 3.91 µM
[49]
  GI50: 1.9 µM
  TGI: 3.74 µM
[50]
  GI50: 2.63 µM
  TGI: 8.12 µM
[51]
  GI50: 3.86 µM
  TGI: 16.2 µM
[52]
  GI50: 11.8 µM
  TGI: 26.5 µM
[53]
  GI50: 14.4 µM
  TGI: 29.8 µM
[54]
  GI50: 2.49 µM
  TGI: 8.86 µM
[55]
  GI50: 2.13 µM
  TGI: 9.38 µM
[56]
  GI50: 11.8 µM
  TGI: 24.9 µM
[57]
  GI50: 5.26 µM
  TGI: 17.3 µM
